# From US20220387602A1, “BIFUNCTIONAL DEGRADERS AND THEIR METHODS OF USE” (NOVARTIS AG, priority 2019, published 2022)
# Assays:
# CRBN [1] = target: T1, CRBN (Homo sapiens, UniProt Q96SW2); experiment: CRBN displacement assay Format 1 (fluorescence polarization, BodipyFL-lenalidomide probe Compound HH); assay type: binding
# Method: (§1) Compounds were tested in the following biochemical and cellular assays.
# (§2) BodipyFL conjugated lenalidomide compound HH was used as a fluorescent probe. […] Protein and substrate were diluted in assay buffer.
# All protein and probe containing solutions were handled in ‘Maxymum Recovery’ tubes (Axygen Scientific Inc., Union City, USA). […] For the plate measurements a PHERAstar reader (BMG Labtech, Offenburg, Germany) was used. The instrument was equipped with a specific optics module containing filters and dichoic mirrors for measuring the fluorescence polarization-type assay. With this module, the fluorescence of the Bodipy FL-based probe was excited at 485 nm and the emissions of the product were measured at 520 nm. The fluorescence in each well was excited by 10 flashes per measurement.
# For the determination of AC50 values, the assays were performed at room temperature in 384-well plates with a total assay volume of 10.1 μL per well. The test compound was dissolved in 90% (v/v) DMSO/water. For the assays, 100 nL of the 90% (v/v) DMSO/water solution or compound solution were added per well, followed by the addition of 5 μL protein solution (protein in 1× assay buffer).
# (§3) The final assay concentration of the protein was nominally 100 nM. After 45 minutes of pre-incubation at room temperature, the competition for binding was started by the addition of 5 μL probe solution (probe dissolved in assay buffer). The final concentration of the probes in the assays was 5 nM. After the addition of the probe solution, the final DMSO concentration in the assay was 0.9% (v/v). The effect of the probe on the pre-established compound-protein complex equilibrium was determined after 45 minutes (t=45 min). The AC50 value was calculated from the plot of percentage of protein saturation versus the test compound concentration by a logistics fit according to: y=A^2+(A^1−A^2)/(1+(x/AC50)^p), where y is the %-saturation value at the test compound concentration, x. A^1 is the lowest saturation value, i.e., 0%, and A^2 the maximum saturation value, i.e. 100%. The exponent, p, is the Hill coefficient.
# BTK = target: T2, BTK (Homo sapiens, UniProt Q06187); experiment: BTK-GFP protein abundance flow cytometry assay in HEK293A; assay type: cell-based; conditions: 24 h
# T2 construct: the BTK open reading frame (ORF) was first shuttled from a pcDNA-DEST40-BTK vector; expressed in transfected cells; host or cells: HEK293A (Invitrogen R70507), lentiviral transduction, blasticidin selection
# T2 sequence (Q06187 whole entry): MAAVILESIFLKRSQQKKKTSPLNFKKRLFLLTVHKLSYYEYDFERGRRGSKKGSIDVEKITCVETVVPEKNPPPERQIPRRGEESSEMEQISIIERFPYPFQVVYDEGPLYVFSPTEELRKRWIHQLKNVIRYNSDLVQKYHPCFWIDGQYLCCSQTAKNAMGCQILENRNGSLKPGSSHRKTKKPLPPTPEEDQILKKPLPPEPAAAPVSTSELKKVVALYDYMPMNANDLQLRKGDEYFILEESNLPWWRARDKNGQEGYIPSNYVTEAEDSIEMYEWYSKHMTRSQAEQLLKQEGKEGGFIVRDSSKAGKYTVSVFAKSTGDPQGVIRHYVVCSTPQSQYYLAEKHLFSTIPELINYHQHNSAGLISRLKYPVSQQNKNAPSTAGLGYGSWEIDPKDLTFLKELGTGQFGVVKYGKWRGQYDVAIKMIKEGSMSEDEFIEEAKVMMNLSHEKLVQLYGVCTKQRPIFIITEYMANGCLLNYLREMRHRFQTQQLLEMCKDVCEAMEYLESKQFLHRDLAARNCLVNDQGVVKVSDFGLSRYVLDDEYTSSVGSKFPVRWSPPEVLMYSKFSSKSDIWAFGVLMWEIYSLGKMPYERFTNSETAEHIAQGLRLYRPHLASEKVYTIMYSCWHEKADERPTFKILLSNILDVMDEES
# Method: Degradation of BTK, CSK, ABL2, EPHA4 and YES1 was measured in HEK293A cells (Invitrogen R70507) expressing either BTK-GFP and RFP, CSK-GFP and mCherry, GFP-ABL2 and mCherry, EPHA4-GFP and mCherry, or YES1-GFP and mCherry from a stably integrated bicistronic BTK-GFP-iresRFP, CSK-GFP-CHYSEL-mCherry, GFP-ABL2-CHYSEL-mCherry, EPHA4-GFP-CHYSEL-mCherry, or YES1-GFP-CHYSEL-mCherry construct, respectively. Reduction of the GFP signal measured by flow cytometry served as readout for BTK, CSK, ABL2, EPHA4 and YES1 degradation after degrader treatment.
# The mix was incubated for another 20 min at RT and then added on 1 mL of a freshly prepared suspension of HEK293FT cells in a well of a 6-well plate (concentration 1.2×10^6 cells/mL). 1 day after transfection, the medium was replaced with 1.5 mL of complete growth medium (DMEM high Glucose+10% FCS+1% L-Glutamine+1% NEAA+1% NaPyr.). 48 h post transfection supernatant containing viral transducing particles was collected and frozen at −80° C.
# Infection was performed with 90 μL of collected supernatant containing viral transducing particles in 1 mL medium including 8 µg/mL polybrene. 24 h post infection, stably transfected cells were selected with blasticidin at a concentration of 8 μg/mL referred to as stable HEK293A sensor cells.
# Stable HEK293A sensor cells were maintained in complete growth medium (DMEM high Glucose+10% FCS+1% L-Glutamine+1% NEAA+1% NaPyr.) with passaging performed twice per week. On Day 0, stable HEK293A sensor cells were seeded at 10,000 cells/well in a 96-well microtiter plate in 260 μL complete medium. On Day 1, cells were treated in duplicate with 10-point 1:3 dilution series of compound using the HP D300 Digital Dispenser (Tecan). DMSO concentrations were normalized across the plate to 0.1%. On Day 2, after 24 h of incubation at 37° C., treatment media was discarded, cells rinsed with 100 μL/well PBS and then detached using 40 μL trypsin/well for 5 min. Trypsin was neutralized with 100 μL/well PBS+20% FCS). Flow cytometry was performed on the samples using the BD FACS CANTO II (Becton Dickinson). Cell identification was then performed using forward (FSC) vs. side scatter (SSC) plots. Single cell discrimination is performed using SSC-Width (SSC-W) vs. SSC-Height (SSC-H) plots. Median GFP values for 5,000 single cells are used to determine BTK levels. Median GFP values from HEK293 Å-iresRFP are used as a background signal and thus defining 0% BTK signal. Median GFP values from DMSO treated HEK293 Å-BTK-GFP-iresRFP are used to define 100% BTK signal for subsequent DC50 curves (concentration at 50% BTK degradation). GFP and RFP are read in the channels called FITC and PE, respectively.
# Concentration response curves plotting relative reduction of the GFP signal (measured by flow cytometry) versus 10 compound concentrations (starting concentration 10 μM, 3 fold dilution steps) of the compounds allowed generation of DC50 values. Protein abundance measured for the second generation vectors having a chysel was done in close analogy to the above described method for measuring BTK abundance.
# Table 5 columns are defined as follows: DC50 refers to the concentration at which 50% maximal degradation was observed; deg Amax is the extent of degradation and the value refers to the % protein remaining at the concentration at which maximum degradation is seen.
# CRBN [2] = target: T1, CRBN; experiment: CRBN displacement assay Format 2a (fluorescence polarization, 1536-well, Envision reader); assay type: binding
# Method: as §1, §2
# The fluorescence of the Bodipy FL-based probe was excited at 480 nm and the emissions of the product were measured at 535 nm. The fluorescence in each well was excited by 30 flashes per measurement.
# For the determination of AC50 values, assays were performed at room temperature in 1536-well plates with a total assay volume of 6.03 μL per well. The test compounds were dissolved and diluted in 100% DMSO. For the assays, 30 nL of DMSO or compound solution were added per well, followed by the addition of 3 μL protein solution (80 nM protein in 1× assay buffer).
# as §3, with “nominally 40” for “nominally 100”, “of 3” for “of 5”, “solution (10 nM probe” for “solution (probe”, “the probe” for “the probes”, “was 0.5%” for “was 0.9%”
# [3] = concentration at which 50% of reference probe Compound HH is displaced, 100 nM protein, 5 nM probe, Table 4, read-out: CRBN AC50 [μM] Format 1
# [4] = concentration at which 50% of reference probe Compound HH is displaced, 40 nM protein, 5 nM probe, read-out: CRBN AC50 [μM] Format 2a
# T1 sequence (Q96SW2 whole entry): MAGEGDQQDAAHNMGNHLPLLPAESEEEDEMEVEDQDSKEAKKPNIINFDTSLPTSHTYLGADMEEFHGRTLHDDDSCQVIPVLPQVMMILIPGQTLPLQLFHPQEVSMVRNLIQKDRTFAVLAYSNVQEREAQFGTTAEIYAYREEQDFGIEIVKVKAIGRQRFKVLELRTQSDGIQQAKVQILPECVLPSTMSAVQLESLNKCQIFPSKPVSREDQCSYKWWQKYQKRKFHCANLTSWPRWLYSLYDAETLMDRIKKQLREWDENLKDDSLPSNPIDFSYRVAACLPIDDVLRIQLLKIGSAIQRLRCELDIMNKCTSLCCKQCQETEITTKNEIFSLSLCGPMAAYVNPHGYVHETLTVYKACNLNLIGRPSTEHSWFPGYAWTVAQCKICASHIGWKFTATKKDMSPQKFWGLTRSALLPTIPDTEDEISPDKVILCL
AC50 (CRBN [1]),AC50 (CRBN [2]),AC50 (CRBN [1]; [3]),AC50 (CRBN [2]; [4]),Compound,further results
> 100 µM,> 50 µM,,,"O=C1CCN(Cc2cc(C(=O)O)ccn2)C(=O)N1 [ILB-8, 2-((2,4-Dioxotetrahydropyrimidin-1(2H)-yl)methyl)isonicotinic acid]","CRBN Amax* (% at 50 μM) Format 2a (CRBN [2]; greatest effect as % displacement of the reference probe at the highest concentration tested (50 μM), given where AC50 >50 μM, 45 min): 21%"
,,3.41 µM,1.3 µM,"O=C1CCN(c2cccc(C(=O)O)c2)C(=O)N1 [ILB-28, 3-(2,4-dioxotetrahydropyrimidin-1(2H)-yl)benzoic acid]",
14.1 µM,4.17 µM,,,"O=C1CCN(Cc2cccn(CCO)c2=O)C(=O)N1 [ILB-3, 1-((1-(2-Hydroxyethyl)-2-oxo-1,2-dihydropyridin-3-yl)methyl)dihydropyrimidine-2,4(1H,3H)-dione]",
,,11.7 µM,7.34 µM,"O=C(O)COc1cccc(N2CCC(=O)NC2=O)c1 [ILB-16, 2-(3-(2,4-Dioxotetrahydropyrimidin-1(2H)-yl)phenoxy)acetic acid]",
11 µM,4.79 µM,,,"C=CCn1cccc(CN2CCC(=O)NC2=O)c1=O [ILB-1, 1-((1-allyl-2-oxo-1,2-dihydropyridin-3-yl)methyl)dihydropyrimidine-2,4(1H,3H)-dione]",
,,1.98 µM,0.48 µM,"O=C1CCN(c2cc(C(=O)O)ccc2Cl)C(=O)N1 [ILB-25, 4-chloro-3-(2,4-dioxotetrahydropyrimidin-1(2H)-yl)benzoic acid]",
,,6.52 µM,2.68 µM,"C#Cc1cccc(N2CCC(=O)NC2=O)c1 [ILB-33, 1-(3-ethynylphenyl)dihydropyrimidine-2,4(1H,3H)-dione]",
,,5.37 µM,2.01 µM,"Cc1ccc(OCC(=O)O)cc1N1CCC(=O)NC1=O [ILB-20, 2-(3-(2,4-Dioxotetrahydropyrimidin-1(2H)-yl)-4-methylphenoxy)acetic acid]",
,,7.37 µM,2.61 µM,Cc1cc(OCC(=O)O)ccc1N1CCC(=O)NC1=O [ILB-15],
19.8 µM,8.36 µM,,,"O=C1CCN(Cc2cccn(CCN3CCC(OC4CCNCC4)CC3)c2=O)C(=O)N1 [ILB-6, 1-((2-oxo-1-(2-(4-(piperidin-4-yloxy)piperidin-1-yl)ethyl)-1,2-dihydropyridin-3-yl)methyl)dihydropyrimidine-2,4(1H,3H)-dione]",

# More lines, now with the values behind:
Compound,AC50 (CRBN [1]),AC50 (CRBN [2]),AC50 (CRBN [1]; [3]),AC50 (CRBN [2]; [4]),further results
"Cc1ccc(S(=O)(=O)NCCCCCNCc2ccc(-c3cc4c(-c5cc(F)cc(NC(=O)c6ccc(C(C)(C)O)cc6F)c5C)ncnc4[nH]3)cc2)cc1N1CCC(=O)NC1=O [Compound 18, N-(3-(6-(4-(((5-(3-(2,4-dioxotetrahydropyrimidin-1(2H)-yl)-4-methylphenylsulfonamido)pentyl)amino)methyl)phenyl)-7H-pyrrolo[2,3-d]pyrimidin-4-yl)-5-fluoro-2-methylphenyl)-2-fluoro-4-(2-hydroxypropan-2-yl)benzamide]",3.09 µM,,,,"BTK degradation Amax (BTK; % protein remaining at the concentration at which maximum degradation is seen, HEK293A): 7.6%; DC50 (BTK; concentration at which 50% maximal degradation was observed, HEK293A BTK-GFP sensor cells): 0.307 µM"
"O=C1CCN(c2c(F)cc(C#CC3CCNCC3)cc2F)C(=O)N1 [ILB-38, 1-(2,6-difluoro-4-(piperidin-4-ylethynyl)phenyl)dihydropyrimidine-2,4(1H,3H)-dione]",,,8.44 µM,6.02 µM,
"O=C1CCN(c2ccc(C#CCN3CCOC4(CCNCC4)C3)cc2)C(=O)N1 [ILB-40, 1-(4-(3-(1-oxa-4,9-diazaspiro[5.5]undecan-4-yl)prop-1-yn-1-yl)phenyl)dihydropyrimidine-2,4(1H,3H)-dione]",,,12.3 µM,3.45 µM,
"O=C1CCN(c2ccc(OCC(=O)N3CCC(OC4CCNCC4)CC3)cc2)C(=O)N1 [ILB-55, 1-(4-(2-Oxo-2-(4-(piperidin-4-yloxy)piperidin-1-yl)ethoxy)phenyl)dihydropyrimidine-2,4(1H,3H)-dione]",14.4 µM,4.04 µM,,,
"COc1ccc(C(=O)N2CCC3(CCNCC3)CC2)cc1N1CCC(=O)NC1=O [ILB-56, 1-(2-methoxy-5-(3,9-diazaspiro[5.5]undecane-3-carbonyl)phenyl)dihydropyrimidine-2,4(1H,3H)-dione]",1.26 µM,0.23 µM,,,
"Cc1ccc(OCC=O)cc1N1CCC(=O)NC1=O [ILB-19, 2-(3-(2,4-dioxotetrahydropyrimidin-1(2H)-yl)-4-methylphenoxy)acetaldehyde]",,,2.51 µM,0.8 µM,
"CC(C)(C)OC(=O)NCC#Cc1cc(F)c(N2CCC(=O)NC2=O)c(F)c1 [ILB-43, tert-Butyl (3-(4-(2,4-dioxotetrahydropyrimidin-1(2H)-yl)-3,5-difluorophenyl)prop-2-yn-1-yl)carbamate]",2.99 µM,2.93 µM,,,
